In patent publication US6818446B2, “Compositions and methods for the analysis of mucin gene expression and identification of drugs having the ability to inhibit mucin gene expression” (The Regents of the University of California, priority 2001, dated 2004):
Entries after “also recorded” stand apart in the source; their conditions may differ.

Experiments:
[1] = system: MUC5B message; assay: Northern blot analysis of MUC5B message in primary TBE cell cultures; details: primary human TBE cells, presence vs absence of 30 nM retinoic acid
[2] = system: MUC5B-b2 promoter; assay: Effect of culture conditions and retinoic acid on MUC5B-b2 promoter-reporter activity in primary human TBE cells; format: cell-based; details: retinoic acid 30 nM
Protocol: For studying the effects of culture conditions on the promoter-reporter gene activity, primary human TBE cultures were grown in 60 mm dishes and transfected with 1 μg of MUC5B promoter-luciferase construct DNA and 0.5 μg pSV-β-gal expression vector. One day following the transfection, cultures were passaged into either 35 mm tissue culture dishes or into collagen gel-coated 25 mm Transwell™ chambers (Coming-COSTAR Catalog Number 3506). Additionally, the cultures were maintained either in the absence or presence of supplemental all-trans-retinoic acid (30 nM). For Transwell™ cultures, chambers were maintained in an air-liquid interface for an additional three days. Cell extracts were prepared and luciferase and β-galactosidase activities were analyzed as described above. For each transfection, relative luciferase activity was expressed after normalization for β-galactosidase activity. The results are presented as a mean of relative activities from at least triplicate dishes, and data is collected from at least three independent experiments. Activity is expressed as units of luciferase activity per unit of β-gal activity (units/beta-gal). […] Results are expressed as “fold increase” of luciferase activity, comparing RA-treated and RA-untreated cultures, where the activity of the RA untreated culture is set to 1. […]

[3] = system: MUC5B promoter; assay: MUC5B-b2 luciferase reporter activity in primary TBE cultures derived from transgenic mice; format: cell-based; details: transgenic mouse TBE cells; cytokine 10 ng/ml, 7 days
Protocol: The transgenic mice described in EXAMPLE 9 were used to isolate TBE cells, which were maintained in culture. The TBE cells were maintained in three culture conditions, which were control (no supplement), with interleukin-6 (IL-6) at a concentration of 10 ng/ml or with IL-17 at a concentration of 10 ng/ml. The cells were maintained in the presence of the cytokines for 7 days, harvested and cell extracts were prepared as described in EXAMPLE 8. The luciferase activity in each cell extract was determined, and normalized for total protein concentration of the extract samples.

[4] = system: MUC5B promoter; assay: Luciferase activity in stably transfected HBE1 cells carrying the MUC5B promoter reporter; format: cell-based, human; details: cytokine 10 ng/ml
Protocol: Experimental—The established cell line HBE1 was cultured in 35 mm dishes and grown to 60-80% confluence. These cells were cotransfected with either MUC-5B reporter construct and a second plasmid encoding the neomycin-resistance (neo) selectable marker. The chimeric reporter plasmids used in the transfections were purified using QIAGEN® plasmid isolation kits, and the cotransfections were done using Roche FuGENE 6™ transfection reagent (Roche Molecular Biochemicals, Indianapolis, Ind.) according to the manufacturer's instructions. In these transfections, 2.5 μg of MUC5B reporter plasmid DNA and 0.5 μg of the neomycin resistance marker plasmid per 35 mm culture dish were used for each transfection.
Following the cotransfection, cells were cultured for an additional 48 to 72 hours. At this time, the medium was replaced with fresh medium containing the neomycin analogue G-418 at a concentration of 100 μg/ml. The selection was maintained for approximately 21 days, at which time clones of resistant transfected cells were replated and maintained as continuous lines. Cell extracts were prepared and luciferase activity quantitated exactly as described in EXAMPLE 8, with the exception that cell extracts were normalized for total protein content, and not β-galactosidase activity. In addition, these cells were cultured in the absence or presence of IL-6 (10 ng/ml) or IL-17 (10 ng/ml).

Row | Compound | levels of MUC5B message in BI and BICG cultures ([1]; Transwell chambers (BI) or collagen gel-coated Transwell chambers (BICG)) | levels of MUC5B message in TC and CG cultures ([1]; tissue culture dishes (TC) or collagen gel coated dishes (CG)) | MUC5B-b2 reporter gene activity, RA-treated vs RA-untreated, tissue culture dishes (TC) ([2]; TC) | MUC5B-b2 reporter gene activity, fold increase RA-treated vs RA-untreated, BICG conditions ([2]; collagen gel-coated Transwell chambers, air-liquid interface) | MUC5B promoter activity (luciferase normalized for total protein) vs control without interleukin [3] | luciferase reporter activity in presence vs absence of cytokine [4]
1 | CC1=C(/C=C/C(C)=C/C=C/C(C)=C/C(=O)O)C(C)(C)CCC1 [retinoic acid, all-trans-retinoic acid] | greatly enhanced | unaffected | not affected | five-fold | – | –
2 | IL-6: pro-inflammatory cytokine interleukin-6 added to cell cultures | – | – | – | – | significant upregulation | strongly induced; also recorded: upregulated
3 | IL-17: pro-inflammatory cytokine IL-17 added to cell cultures | – | – | – | – | significant upregulation | strongly induced; also recorded: upregulated
